MIC data for three compounds are collected here from ChEMBL document CHEMBL1150834, “Novel halogenated metabolites from the Malaysian Laurencia pannosa” (2001).

Structures are written as SMILES.

Format in all cases: functional
Test [1] concerns Chromobacterium violaceum. As to the kind of experiment: Antibacterial activity against Chromobacterium violaceum after 24 hrs by paper disk method.
A further test has as its system Vibrio cholerae. The test can be described thus: Antibacterial activity against Vibrio cholerae after 24 hrs by paper disk method.
The test system of the next test is Proteus mirabilis. As to the kind of experiment: Antibacterial activity against Proteus mirabilis after 24 hrs by paper disk method.

In test [1], `C#C/C=C\C[C@@H]1O[C@H]2C[C@@H]1O[C@H](CC)[C@@H](Br)C[C@@H]2Cl` registered an MIC of 100 µg.

`C[C@@H]1[C@]2(CC[C@@](C)(Cl)[C@H](Br)C2)[C@]2(C)CC[C@@]1(C)O2` [PANNOSANE] came in with an MIC in test [1] of 60 µg.

With `C=C1[C@@H](C)CC[C@@](C)(O)[C@@]12CC[C@@](C)(Cl)[C@H](Br)C2` [PANNOSANOL], the MIC with Vibrio cholerae was 100 µg; in the test with Proteus mirabilis it was 60 µg; in test [1] it was 100 µg.
